Here are results for twelve molecules from ChEMBL document CHEMBL1201862, “PubChem BioAssay data set” (2004).

Some test systems named below: KM-20L2; K562; U-251; OVCAR-5; A549; UACC-62; UO-31; A498; COLO 205; HT-29; SN12C; RPMI-8226; OVCAR-3; SF-295; HCC 2998; CAKI-1; HL-60.
What all share (assay): DTP human tumour cell line panel, 48 h

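Interpolation was linear, between the two tested concentrations surrounding the appropriate level; five concentrations were tested over 48 hours in 96-well plates. GI50 is the concentration that inhibits growth by half.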 Activity calls are given as the source filed them. Rule as the data show it: active = GI50 up to about 1.1 µM and inactive = higher.

Broadly, the GI50 is the concentration that inhibits growth by half. On to `COC1(C)CNCC(C)(C)NC(=O)C(C)(OC)CNCC(C)(C)NC1=O` (centres undefined), for which the GI50 with KM-20L2, in the assay on K562, with U-251, with OVCAR-5, with A549 and in the assay with UACC-62 was > 100 µM (inactive) each time. Moreover, the GI50 in the assay with UO-31, with A498, with COLO 205, with HT-29, in the assay on SN12C and with RPMI-8226 was > 100 µM (inactive) throughout. The GI50 with OVCAR-3, in the assay with SF-295, in the assay with HCC 2998, in the assay with CAKI-1 and in the assay on HL-60 was > 100 µM (inactive) each time.

On to `C=CN1C(=O)[C@H](Oc2ccccc2)[C@@H]1c1ccccc1`, for which the GI50 in the assay on KM-20L2 was 31.7 µM (inactive); in the assay with K562, 36.3 µM (inactive); in the assay on U-251 it was 36.4 µM (inactive); in the assay with OVCAR-5, > 100 µM (inactive); in the assay with A549, 26.8 µM (inactive); in the assay on UO-31 it was 36.3 µM (inactive). Further, the GI50 in the assay with A498 is 71.4 µM (inactive); with HT-29, 22.7 µM (inactive); with SN12C, 32.7 µM (inactive); with RPMI-8226, 20.3 µM (inactive); in the assay on SF-295, 26.1 µM (inactive); with HCC 2998, 47.4 µM (inactive).

For `Cc1ccc(NC(=O)CCc2n[nH]c(=S)o2)cc1`, the GI50 in the assay on KM-20L2 was > 72.1 µM (inactive); in the assay with K562 it was 44.6 µM (inactive); with U-251, > 100 µM (inactive); with OVCAR-5, > 100 µM (inactive); in the assay with A549, > 100 µM (inactive); in the assay with UACC-62 it was > 86.3 µM (inactive). The GI50 with UO-31, in the assay on A498, in the assay with COLO 205, in the assay on HT-29, in the assay with SN12C and with OVCAR-3 was > 100 µM (inactive) throughout. Moreover, the GI50 in the assay on SF-295, in the assay with HCC 2998, with CAKI-1 and in the assay with HL-60 was > 100 µM (inactive) in each case.

With `CCN(CC)c1ccc(/N=N/c2ccc(-c3nc4cccnc4s3)cc2)cc1`, the GI50 in the assay with KM-20L2 was > 100 µM (inactive); in the assay on K562, > 100 µM (inactive); in the assay on U-251, > 100 µM (inactive); with OVCAR-5, > 100 µM (inactive); in the assay on A549, 88.7 µM (inactive); in the assay with UACC-62, 97.9 µM (inactive). Also, the GI50 in the assay on UO-31, in the assay on A498, with COLO 205, in the assay on HT-29, with SN12C and in the assay on RPMI-8226 was > 100 µM (inactive) in each case. Also, the GI50 in the assay on OVCAR-3, with SF-295, with HCC 2998, in the assay with CAKI-1 and in the assay with HL-60 was > 100 µM (inactive) in each case.

Turning to `Nc1ncnc2c1ncn2C1OC(CSCc2ccc(Cl)cc2)C(O)C1O` (centres undefined), the GI50 with KM-20L2 is 9.55 µM (inactive); with K562, 30 µM (inactive); in the assay on U-251, 66.2 µM (inactive); with OVCAR-5, > 100 µM (inactive); with A549 it was 43.1 µM (inactive); with UACC-62 it was 46.9 µM (inactive). Also, the GI50 with UO-31 was 18.9 µM (inactive); with A498 it was 23.8 µM (inactive); with COLO 205 it was 40.4 µM (inactive); with HT-29 it was 22.1 µM (inactive); in the assay with SN12C, 45.7 µM (inactive); in the assay on RPMI-8226, 21.8 µM (inactive). Moreover, the GI50 with OVCAR-3 was 32.1 µM (inactive); in the assay on SF-295, 50.9 µM (inactive); with HCC 2998, 44.9 µM (inactive); with CAKI-1, 21.5 µM (inactive); in the assay on HL-60 it was 23.8 µM (inactive).

On to `COC(=O)[C@H]1C=C[C@@H](C)n2c(=O)c3ccccc3c(=O)n21`, for which the GI50 in the assay on KM-20L2, in the assay on K562, in the assay on U-251, with OVCAR-5, in the assay with A549 and in the assay on UO-31 was > 100 µM (inactive) throughout. For the same molecule, the GI50 in the assay on A498, in the assay with COLO 205, with HT-29, with SN12C, in the assay on RPMI-8226 and in the assay with OVCAR-3 was > 100 µM (inactive) in each case. The GI50 in the assay on SF-295, in the assay with HCC 2998, in the assay with CAKI-1 and in the assay with HL-60 was > 100 µM (inactive) each time.

With `O=C1c2ccccc2C(=O)N1C/C=N/NS(=O)(=O)c1cccc([N+](=O)[O-])c1`, the GI50 with KM-20L2, in the assay on K562, with U-251, in the assay with A549, in the assay with UACC-62 and with UO-31 was > 100 µM (inactive) in each case. The GI50 in the assay with A498, with COLO 205, in the assay with HT-29, in the assay with SN12C, in the assay with RPMI-8226 and in the assay with SF-295 was > 100 µM (inactive) each time. For the same molecule, the GI50 in the assay on HCC 2998, in the assay on CAKI-1 and with HL-60 was > 100 µM (inactive) each time.

`COC(=O)c1cccc2cccc(C(=O)Nc3ccc(C)cc3C)c12`: the GI50 with KM-20L2, in the assay with K562, in the assay on U-251, in the assay on OVCAR-5, with A549 and in the assay with UACC-62 was > 100 µM (inactive) throughout. In addition, the GI50 is > 100 µM (inactive) in the assay with UO-31; 33 µM (inactive) with A498; 69.5 µM (inactive) in the assay with COLO 205; 91 µM (inactive) with HT-29; > 100 µM (inactive) in the assay with SN12C; 22.5 µM (inactive) with RPMI-8226. For the same molecule, the GI50 was 72.8 µM (inactive) in the assay on OVCAR-3; > 100 µM (inactive) in the assay on SF-295; > 100 µM (inactive) in the assay with HCC 2998; > 100 µM (inactive) in the assay with CAKI-1; 1.08 µM (active) with HL-60.

`CC(=O)c1ccc(NC(=O)C(=O)C(C(=O)/C=C/c2ccccc2)C2OC(=O)c3ccccc32)cc1` (centres undefined): the GI50 in the assay with KM-20L2 was > 100 µM (inactive); in the assay on K562, 74.5 µM (inactive); in the assay with U-251, 83 µM (inactive); with OVCAR-5, > 100 µM (inactive); in the assay with A549, > 100 µM (inactive); in the assay with UACC-62, > 100 µM (inactive). Moreover, the GI50 was > 100 µM (inactive) with UO-31; > 100 µM (inactive) with A498; > 100 µM (inactive) in the assay on COLO 205; > 100 µM (inactive) in the assay on HT-29; > 100 µM (inactive) in the assay on SN12C; 54.2 µM (inactive) in the assay with RPMI-8226. Also, the GI50 with SF-295, in the assay with HCC 2998, in the assay on CAKI-1 and with HL-60 was > 100 µM (inactive) throughout.

Take `N#C/C(=C/c1cccc2ccccc12)C(=O)c1ccccc1`: the GI50 with KM-20L2 was 19 µM (inactive); with K562, > 10 µM (inactive); in the assay on U-251, 19 µM (inactive); in the assay on OVCAR-5 it was 23.6 µM (inactive); in the assay with A549, > 10 µM (inactive); with UACC-62, 18.3 µM (inactive). The GI50 with UO-31 was 18.4 µM (inactive); with A498, 23.1 µM (inactive); with HT-29 it was > 100 µM (inactive); with SN12C it was 33.2 µM (inactive); in the assay on RPMI-8226, 22.3 µM (inactive); with OVCAR-3, 48.6 µM (inactive). Further, the GI50 in the assay on SF-295 was 20 µM (inactive); with HCC 2998, 23.6 µM (inactive); in the assay on CAKI-1, 23.9 µM (inactive); with HL-60, 19.4 µM (inactive).

With `O=C(c1ccccc1)N1C2C3CC(OCc4ccccc4)(OCc4ccccc4)C(O3)C21` (centres undefined), the GI50 was > 100 µM (inactive) in the assay with KM-20L2; 62.2 µM (inactive) in the assay on K562; > 100 µM (inactive) with U-251; > 100 µM (inactive) in the assay on OVCAR-5; > 100 µM (inactive) in the assay on A549; > 100 µM (inactive) in the assay with UACC-62. In addition, the GI50 is > 100 µM (inactive) with UO-31; > 100 µM (inactive) in the assay on A498; > 100 µM (inactive) in the assay on COLO 205; > 100 µM (inactive) in the assay with SN12C; 54.2 µM (inactive) in the assay on RPMI-8226; > 100 µM (inactive) in the assay with HCC 2998. In addition, the GI50 with CAKI-1 and in the assay on HL-60 was > 100 µM (inactive) throughout.

On to `O=c1cccccc1O.O=c1cccccc1O.O=c1cccccc1O.[SiH4]`, for which the GI50 was 3.75 µM (inactive) in the assay with KM-20L2; 6.87 µM (inactive) in the assay with K562; 21.3 µM (inactive) with U-251; 28.6 µM (inactive) in the assay on OVCAR-5; 25.6 µM (inactive) in the assay with A549; 0.822 µM (active) in the assay with UACC-62. Further, the GI50 with UO-31 was 25.2 µM (inactive); in the assay with A498, 34.4 µM (inactive); in the assay on COLO 205, 11 µM (inactive); in the assay with HT-29 it was 33.4 µM (inactive); in the assay on SN12C, 25.3 µM (inactive); in the assay on RPMI-8226, 9.73 µM (inactive). Moreover, the GI50 with OVCAR-3 is 24.2 µM (inactive); in the assay on SF-295 it was 41.2 µM (inactive); with HCC 2998, 32.4 µM (inactive); in the assay on CAKI-1 it was 56.2 µM (inactive).
